From the supplement of paper PMC5908809

What was measured:
NKL (IL-2 2.5 ng/mL) [1] = assay: percent inhibition of viability; higher = more inhibition; conditions: 72 h
NK-YS (IL-2 2.5 ng/mL) [2] = assay: as above; conditions: 72 h
NK-92 (IL-2 2.5 ng/mL) [3] = assay: as above; conditions: 72 h
[4] = tested on: normal primary NK cells, pool 2 (3 donors) (IL-2 2.5 ng/mL); assay: as above; conditions: 72 h
YT (IL-2 2.5 ng/mL) [5] = assay: as above; conditions: 72 h
KHYG-1 (IL-2 2.5 ng/mL) [6] = assay: as above; conditions: 72 h
KAI3 (IL-2 2.5 ng/mL) [7] = assay: as above; conditions: 72 h
DERL-7 (IL-2 2.5 ng/mL) [8] = assay: as above; conditions: 72 h
[9] = tested on: normal primary NK cells, pool 1 (3 donors), resting (IL-2 0 ng/mL); assay: as above; conditions: 72 h
[10] = tested on: normal primary NK cells, pool 1 (3 donors) (IL-2 2.5 ng/mL); assay: as above; conditions: 72 h
SNK-6 (IL-2 2.5 ng/mL) [11] = assay: as above; conditions: 72 h
[12] = tested on: normal primary NK cells, pool 3 (3 donors) (IL-2 2.5 ng/mL); assay: as above; conditions: 72 h
IMC-1 (IL-2 20 ng/mL) [13] = assay: as above; conditions: 72 h
[14] = tested on: normal NK cells expanded with K562-aAPC; assay: drug sensitivity score (DSS) (DSS units); higher = more sensitive; extreme values may be limits of the assay; conditions: 72 h; IL-2 2.5 ng/mL
Experimental: (§1)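 Drug sensitivity and resistance testing on K562-aAPC-expanded normal NK cells: 5 concentrations (10-fold steps over a 10,000-fold range), 72 h at 37 °C, viability by CellTiter-Glo normalised to DMSO and benzethonium chloride controls; DSS from the fitted curve.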

NKL (IL-2 2.5 ng/mL) [15] = assay: as above; conditions: 72 h
NK-YS (IL-2 2.5 ng/mL) [16] = assay: as above; conditions: 72 h
NK-92 (IL-2 2.5 ng/mL) [17] = assay: as above; conditions: 72 h
[18] = tested on: normal primary NK cells, pool 2 (3 donors) (IL-2 2.5 ng/mL); assay: as above; conditions: 72 h
YT (IL-2 2.5 ng/mL) [19] = assay: as above; conditions: 72 h
KHYG-1 (IL-2 2.5 ng/mL) [20] = assay: as above; conditions: 72 h
KAI3 (IL-2 2.5 ng/mL) [21] = assay: as above; conditions: 72 h
DERL-7 (IL-2 2.5 ng/mL) [22] = assay: as above; conditions: 72 h
[23] = tested on: normal primary NK cells, pool 1 (3 donors), resting (IL-2 0 ng/mL); assay: as above; conditions: 72 h
[24] = tested on: normal primary NK cells, pool 1 (3 donors) (IL-2 2.5 ng/mL); assay: as above; conditions: 72 h
SNK-6 (IL-2 2.5 ng/mL) [25] = assay: as above; conditions: 72 h
[26] = tested on: normal primary NK cells, pool 3 (3 donors) (IL-2 2.5 ng/mL); assay: as above; conditions: 72 h
IMC-1 (IL-2 20 ng/mL) [27] = assay: as above; conditions: 72 h
[28] = tested on: normal NK cells expanded with K562-aAPC; assay: percent inhibition of viability; higher = more inhibition; conditions: 72 h, IL-2 2.5 ng/mL
Experimental: as §1

Cn1cc(-c2ccc3nnc(C(F)(F)c4ccc5ncccc5c4)n3n2)cn1 (max concentration tested 10000 nM)
percent inhibition of viability [%]
Conditions	1 nM	10 nM	100 nM	1000 nM	10000 nM
DERL-7 (IL-2 2.5 ng/mL) [8]	-6.47	1.35	-5.46	-8.39	-0.31
IMC-1 (IL-2 20 ng/mL) [13]	2.83	3.66	7.99	14.2	18.1
KAI3 (IL-2 2.5 ng/mL) [7]	3.43	0.25	2.09	1.51	5.42
KHYG-1 (IL-2 2.5 ng/mL) [6]	0.7	1.87	-1.15	9.39	7.11
NK-92 (IL-2 2.5 ng/mL) [3]	3.19	2.36	1.58	20	16.7
NK-YS (IL-2 2.5 ng/mL) [2]	-0.7	-2.18	-0.71	3.19	6.06
NKL (IL-2 2.5 ng/mL) [1]	15.6	0.97	2.69	5.68	32.8
SNK-6 (IL-2 2.5 ng/mL) [11]	-5.06	-3.02	-0.1	27.9	44
YT (IL-2 2.5 ng/mL) [5]	2.08	2.01	-0.66	8.07	15.4
[4]	-8.18	-11	-4.17	-3.65	7.05
[9]	-30.2	-15.2	-20.6	-28.2	-14.9
[10]	-10.8	-1.09	-9.66	-1.21	4
[12]	-11.6	-17.9	-6.24	0.44	0.55
[28]	2.09	-3.72	2.32	3.57	16.4

Conditions	drug sensitivity score
DERL-7 (IL-2 2.5 ng/mL) [22]	0
IMC-1 (IL-2 20 ng/mL) [27]	1.63
KAI3 (IL-2 2.5 ng/mL) [21]	0
KHYG-1 (IL-2 2.5 ng/mL) [20]	0
NK-92 (IL-2 2.5 ng/mL) [17]	2.9
NK-YS (IL-2 2.5 ng/mL) [16]	0
NKL (IL-2 2.5 ng/mL) [15]	2.43
SNK-6 (IL-2 2.5 ng/mL) [25]	5.6
YT (IL-2 2.5 ng/mL) [19]	0.87
[14]	0.71
[18]	0
[23]	0
[24]	0
[26]	0

Cc1ccccc1C(C(=O)NC1CCCCC1)N(C(=O)Cn1ccnc1C)c1cccc(F)c1 (configuration not stated) [AGI-5198] (max concentration tested 10000 nM)
percent inhibition of viability [%]
Conditions	1 nM	10 nM	100 nM	1000 nM	10000 nM
DERL-7 (IL-2 2.5 ng/mL) [8]	-2.01	0.12	2.86	4.19	4.9
IMC-1 (IL-2 20 ng/mL) [13]	-3.01	0.83	3.36	-0.42	6.36
KAI3 (IL-2 2.5 ng/mL) [7]	1.08	-2.21	4.4	-7.93	5.53
KHYG-1 (IL-2 2.5 ng/mL) [6]	2.51	1.12	2.9	0.31	10.8
NK-92 (IL-2 2.5 ng/mL) [3]	-13.7	-5.86	2.38	-10.7	12.8
NK-YS (IL-2 2.5 ng/mL) [2]	1.52	-1.9	7.02	-2.36	15.5
NKL (IL-2 2.5 ng/mL) [1]	-11.8	5.55	4.44	6.62	15.3
SNK-6 (IL-2 2.5 ng/mL) [11]	8.4	14.1	-2.27	3.58	14.7
YT (IL-2 2.5 ng/mL) [5]	0.66	2.4	5.93	3.4	10.8
[4]	-13.6	-0.73	3.47	6.75	9.8
[9]	7.51	-9.12	-0.43	-14.1	-4.43
[10]	-4.32	-10.5	-2.82	-8.59	-1.32
[12]	-10	-4.39	-0.6	2.48	5.96
[28]	-2.75	-1.08	-4.23	1.75	3.84

Conditions	drug sensitivity score
DERL-7 (IL-2 2.5 ng/mL) [22]	0
IMC-1 (IL-2 20 ng/mL) [27]	0
KAI3 (IL-2 2.5 ng/mL) [21]	0
KHYG-1 (IL-2 2.5 ng/mL) [20]	0
NK-92 (IL-2 2.5 ng/mL) [17]	0.01
NK-YS (IL-2 2.5 ng/mL) [16]	0.18
NKL (IL-2 2.5 ng/mL) [15]	0.33
SNK-6 (IL-2 2.5 ng/mL) [25]	0.54
YT (IL-2 2.5 ng/mL) [19]	0
[14]	0
[18]	0
[23]	0
[24]	0
[26]	0

O=C(Nc1cccc(C(F)(F)F)c1)Nc1cc(S(=O)(=O)NC2CC2)ccc1-c1ccsc1 [AGI-6780] (max concentration tested 10000 nM)
percent inhibition of viability [%]
Conditions	1 nM	10 nM	100 nM	1000 nM	10000 nM
DERL-7 (IL-2 2.5 ng/mL) [8]	2.8	2.88	5.06	7.2	42.2
IMC-1 (IL-2 20 ng/mL) [13]	-3.83	-6.4	-1.13	-1.96	12.3
KAI3 (IL-2 2.5 ng/mL) [7]	7.81	-7.37	-5.02	-1.47	24.4
KHYG-1 (IL-2 2.5 ng/mL) [6]	0.2	-3.96	-1.95	2.69	43.5
NK-92 (IL-2 2.5 ng/mL) [3]	-7.9	-10.9	-5.67	20.1	65.8
NK-YS (IL-2 2.5 ng/mL) [2]	-0.22	0.5	-0.98	2.65	23.1
NKL (IL-2 2.5 ng/mL) [1]	-8.69	-12.6	-8.03	-5.7	20.2
SNK-6 (IL-2 2.5 ng/mL) [11]	-7.22	11.7	2.33	11.1	32.3
YT (IL-2 2.5 ng/mL) [5]	-2.18	-6.24	-5.3	5.28	46.9
[4]	-16	-3.85	-3.48	9.29	20.2
[9]	2.29	1.29	13	17.2	44.5
[10]	-6.68	-2.93	8.08	7.42	23.6
[12]	-11.5	-1.88	-0.35	8.79	8.51
[28]	-7.15	-5.5	-5.48	-5.66	6.74

Conditions	drug sensitivity score
DERL-7 (IL-2 2.5 ng/mL) [22]	3.34
IMC-1 (IL-2 20 ng/mL) [27]	0.03
KAI3 (IL-2 2.5 ng/mL) [21]	0.81
KHYG-1 (IL-2 2.5 ng/mL) [20]	2.61
NK-92 (IL-2 2.5 ng/mL) [17]	6.57
NK-YS (IL-2 2.5 ng/mL) [16]	1.21
NKL (IL-2 2.5 ng/mL) [15]	0.4
SNK-6 (IL-2 2.5 ng/mL) [25]	2.72
YT (IL-2 2.5 ng/mL) [19]	3.31
[14]	0
[18]	1.59
[23]	4.5
[24]	1.25
[26]	0
